The conditions of this data set: Liquid, Ebulliometric method (Recirculating still).

Molecules are shown by their SMILES. Numbers after ± are expanded uncertainties.

Regarding `CC#N` [acetonitrile], the “vapor or sublimation pressure” value (323.15 K) was determined as 33.86 ± 0.38 kPa.

For `O` [water], the “vapor or sublimation pressure” value is given as 3.166 ± 0.054 kPa (298.15 K) and 12.35 ± 0.087 kPa (323.15 K).

The record behind these values is the NIST ThermoML archive (doi:10.1021/je800557h).
